Assay results from patent US5786332A, “Cytokine restraining agents and methods of use in pathologies and conditions associated with altered cytokine levels” (Trega Biosciences, Inc., priority 1995, dated 1998).

What was measured:
Sprague-Dawley rats [1] = assay: Disuse deconditioning (tail suspension, 14 days); type: in vivo; conditions: 1 or 5 μg/kg IP twice daily
Procedure: Adult male Sprague-Dawley rats (355-365 g) were used in this study. Animals were housed individually in standard rat cages and were acclimated on a treadmill for 4 days. The next day, a baseline tail bleed was performed, followed by a maximal treadmill stress test the day after. The day following the stress test, the animals were divided into the appropriate treatment and control groups and the animals were suspended by their tails in suspension cages, which simulates weightlessness and, therefore, deconditions the animals. Another group of control animals was placed in standard rat cages with grated flooring similar to that utilized in the suspension cages. All animals were housed one per cage and supplied with food and water ad libitum. Body weights and food consumptions were measured daily. Animals received twice daily IP injections of 1 μg/kg or 5 μg/kg body weight of EX-2 (treated), or 1 ml/kg body weight of saline (control). On day 10, all animals were stress tested on the treadmill until they reached exhaustion. Data on maximum VO2 and running time were collected and compared to pre-suspension results. On day 14, all animals were sacrificed, and blood, tissues, and organs were collected for further analysis. All procedures and tests were performed blind to avoid researcher subjectivity. Statistical significance (p<0.05) between groups was evaluated by ANOVA with Student-Newman-Keuls test for multiple comparisons. All data are reported as the mean ± standard error (SE).
All of the animals were subjected to the stress tests, which measured exercise time and maximal VO2. As well, levels of the oxidative enzyme soleus citrate synthase and tibia bone density were measured.
Soleus citrate synthase was attenuated by 50%.

[2] = tested on: inducible nitric oxide synthase (INOS); assay: Inducible nitric oxide synthase induction in rat aorta smooth muscle cells (cGMP RIA); type: cell-based; conditions: RASMC; 0.1 or 1 μM EX-2 before LPS, IL-1β or TNF-α (not specified which)
Procedure: A. Inducible Nitric Oxide Synthase (INOS): Rat aorta smooth muscle cells (RASMC) were isolated from male rats (325-350 g) using the previously published procedures of Gelsterfer et al., Circ. Res. 62:749-756 (1988), which is incorporated herein by reference. Cells were positively identified as smooth muscle cells by indirect immunofluorescent staining for anti-α-actin, using a mouse anti-α-actin antibody and anti-mouse IgG FITC conjugate. Cells were grown in T-75 tissue culture flasks (Corning Delbelco's Glass, Inc.; Corning, N.Y.) in 50% F12 and 50% Delbelco's Modified Eagle Medium (DMEM) supplemented with 10% bovine serum, 0.2 g/l L-glutamine, penicillin (100 U/ml) and streptomycin (0.1 mg/ml).
Cells between passages 1-5 were pretreated with one of the following: vehicle, LPS (1 μg/ml), IL-1β (10 U/ml), or TNF-α (100 U/ml) for 6 hr. […] Accumulation of cGMP was determined following exposure to 0.3 mM 3-isobutyl-1-methyl xanthine (IBMX) in the presence or absence of 1 mM L-arginine. […] The HCl extract was analyzed for cGMP by RIA and the NaOH-solubilized cell remnants were used for protein determination.
Male Sprague-Dawley rats were anesthetized with 55 mg/kg pentobarbital IP. […] RASMC were incubated with plasma from control or EX-2-treated animals and the ability of plasma components to inhibit the induction of INOS by LPS or IL-1β was determined as above. […]

Sprague-Dawley rats [3] = assay: Renal ischemia-reperfusion injury; type: in vivo; conditions: I/R + EX-2 (50 or 500 μg/kg iv, not specified)
Procedure: A. Ischemia-Reperfusion Injury: These experiments were performed to determine if a peptide which has cytokine restraining properties, EX-2, can ameliorate the reperfusion-induced vasoconstriction and reduction in glomerular filtration rate that results from clamping of the renal artery. As a comparison, the NSAID ketorolac was utilized in the same model.
Sprague-Dawley rats (250-300 g) were anesthetized with Inactin® (120 mg/kg). After deep anesthesia was assured, the rats were cannulated in the trachea with polyethylene (PE) tubing (PE 240), jugular vein, femoral artery, bladder (PE 50 for previous 3 cannulations), and left ureter (stretched PE 50). Once cannulation was completed, a 2 cm flank incision above the left kidney was performed and the renal pelvis and vascular bundle were exposed. […]
Just prior to clamping, EX-2 (50 or 500 μg/kg), ketorolac (KETO, 1 mg/kg), or vehicle was administered intravenously (iv) After 1 hr of clamping (ischemia), the clamp was gently removed with care taken to avoid damaging either the renal artery or nerves. […] After 60 min of reperfusion, glomerular filtration rate (GFR), renal plasma flow (RPF) and renal vascular resistance (RVR) were assessed in two 30 min collection periods. […] Contralateral renal function was utilized to determine the stability of the rat's renal function during the measured period.

What does the source list for “Ac-Nle-Gln-His-(D)Phe-Arg-(D)Trp-Gly-NH2 [EX-2]”?
% Attenuation of suspension-induced decrease: Soleus Citrate Synthase (Sprague-Dawley rats [1]; day 14): 50%; % Attenuation of suspension-induced decrease: Tibia Bone Density (Sprague-Dawley rats [1]; day 14): 50%; % Attenuation of suspension-induced decrease: Exercise Time (Sprague-Dawley rats [1]; treadmill day 10): 44%; % Attenuation of suspension-induced decrease: Maximal VO2 (Sprague-Dawley rats [1]; treadmill day 10): 80%; % Reduction of induced increase in cGMP (pmol/100 mg/5 min), INOS [2]: 60%; GFR (glomerular filtration rate) (Sprague-Dawley rats [3]; 1 hr clamp, after 60 min reperfusion, I/R + PBS 0.2 ± 0.1): 0.5 ± 0.1 ml/mm; RPF (renal plasma flow) (Sprague-Dawley rats [3]; I/R + PBS 0.8 ± 0.2): 2.3 ± 0.3 ml/mm
